Measured values taken from patent US6203822A, “Gallium-containing compounds for the treatment of infections caused by intracellular pathogens and pathogens causing chronic pulmonary infection” (priority 1996, dated 2001).

Legend:
[1] = tested on: M. tuberculosis in human macrophages; experiment: Colony-forming unit assay to assess pathogen death; type: cell-based
Protocol: Example 4 and Example 5 detail exemplary methods used to determine whether the mycobacteria strains were killed by the addition of gallium nitrate. […] The bacteria were resuspended in 7H9 broth (BBL Microbiology Systems) or onto agar plates without gallium nitrate and incubated under conditions known to promote bacterial growth. In Example 4, the growth index for these cultures was assessed after 6 weeks to determine whether bacteria are inhibited or killed. […] In Example 5, M. tuberculosis-infected macrophages cell lysates were plated onto the surface of media able to support M. tuberculosis growth. Colony forming unit assays were counted to assess bacterial death or inhibition.
The growth index assay cannot always clearly distinguish between bacterial survival (without multiplication) and bacterial death. Therefore, colony forming unit assays were also used to assess the bactericidal activity of gallium-containing compounds in these experiments. Lysed monolayers were plated in Middlebrook 7H11 plates and colonies forming on the plates were counted after 14 days. […] In fact, this experiment provided the most graphic illustration of the influence of gallium nitrate on bacterial killing. That is, control-infected monolayers were lysed as a result of bacterial multiplication so that macrophages could no longer be visualized by microscopy. […] Importantly, the results in the colony-forming unit assay resemble the results obtained with the radiometric BACTEC assay.

[2] = tested on: M. avium-intracellulare complex (MAI), patient isolate; experiment: Growth inhibition of MAI (patient isolate) in human alveolar macrophages; type: cell-based; details: 500 μM, 24 hr and 48 hr
Protocol: (§1) M. avium-intracellulare complex (MAI) was obtained from the ATCC (#25291) and from a patient isolate from the State Hygienic laboratory at the University of Iowa Hospital and Clinics. Human alveolar macrophages were obtained from broncholavage of healthy patients and placed in monolayer culture. The bacteria were added to the cells in a bacteria to macrophage ratio of about 1:1. Growth index readings were obtained at 24 hr and 48 hr after gallium nitrate administration (500 μM) as described in Example 3 and used by Cavalieri, et al. (Antimicrob. Agents and Chemo. 39:1542-1545,1995).

[3] = cited from earlier work
[4] = tested on: M. avium-intracellulare complex (MAI), ATCC #25291; experiment: Growth inhibition of MAI (ATCC isolate) in human alveolar macrophages; type: cell-based; details: 500 μM, 24 hr and 48 hr
Protocol: as §1

[5] = tested on: M. tuberculosis strain H37Ra; type: cell-based
[6] = tested on: M. tuberculosis in human alveolar macrophages; experiment: M. tuberculosis in human alveolar macrophages, gallium nitrate with or without anti-tuberculous antibiotics; type: cell-based
Protocol: The gallium-containing compounds can also be tested for their ability to inhibit intracellular pathogens in tissue culture assays. In general, in these assays, the macrophages are placed in culture and incubated with the intracellular pathogen at an approximate cell to pathogen ratio of preferably at least 1:1 to about 1:5 cells:pathogen. Exemplary culture conditions are provided in the assays detailed in the Examples. For assays assessing M. tuberculosis infection, freshly adherent monocytes, 12 day-old adherent MDMs, or freshly adherent alveolar macrophages are incubated with M. tuberculosis, MAI or other intracellular bacteria at a ratio of about 1:1 to about 1:5 (phagocyte:bacterium). For M. tuberculosis or MAI, the bacteria are incubated with the phagocyte for 2 hr at 37° C. in RPMI/HEPES media with 2.5% serum or human serum albumin (serum-free). The cells are washed to remove non-adherent bacteria and monolayers are replated with RPMI containing 1% autologous serum (to maintain phagocyte viability but not to sustain extracellular growth of bacteria). Gallium-containing compounds, such as gallium nitrate, with, or without, other agents such as antibiotics, cytokines etc., are added about 24 hr. later and mycobacterial growth in cell lysates is then assessed over the next several days either by the radiometric BACTEC system or by colony-forming units on agarose plates. In each experiment, growth is assessed relative to control monolayers where no drug has been added.
Human alveolar macrophages were purified from healthy non-smoking adult volunteers and placed in monolayer culture. M. tuberculosis infected cells were treated with gallium nitrate as described in Example 2. Antituberculous antibiotics were added to wells alone or with gallium nitrate at 500 μM 24 h after M. tuberculosis infection. Antituberculous antibiotics tested included streptomycin (2.016 μg/ml), isoniazid (0.1 μg/ml), rifampin (2.0 μg/ml), and ethambutol (2.52 μg/ml) and the combination of antibiotics was denoted as SIRE. Antibiotics were obtained in lyophilized form from BACTEC. The antibiotics were reconstituted in sterile water per package instructions. With reference to FIG. 3, SIRE refers to combinations of streptomycin, isoniazid, rifampin and ethambutol while IR refers to combinations of Isoniazid and rifampin.
Infected macrophages were cultured for 24 h, 48 h, or 120 h. Growth index readings of combined supernatants and cell lysates were measured in the BACTEC 460 TB system. […] Since these antibiotics have a number of unpleasant side effects that are reduced at reduced concentrations of the drugs, combined therapies that permit these antibiotics to be administered at lower doses when combined with gallium nitrate is significant and may help to promote better drug compliance in patients infected with M. tuberculosis.

[7] = tested on: P. aeruginosa strain PA01; experiment: Growth inhibition of P. aeruginosa in iron-supplemented succinate medium; type: cell-based; details: for A600 (growth): 1 μM ferric chloride, 7 h, control A600=0.297
Protocol: In another embodiment of this invention, P. aeruginosa, the principle cause of chronic lung infections in patients with cystic fibrosis, was also determined to be susceptible to gallium-containing compounds. The PA01 strain of P. aeruginosa only grew in an iron-restricted succinate based broth medium (Cox, CD. Infect. Immun. 52:263-270, 1986) that included exogenous Ferric chloride or iron chelated to either of the siderophores pyochelin or pyoverdin at concentrations of 1 μM or greater. The addition of gallium nitrate to the iron supplemented medium inhibited P. aeruginosa growth (see Example 15). Growth was measure by monitoring the culture medium absorbance at 600 nm.
P. aeruginosa strain PA01 was suspended in succinate-based medium (Cox, C. D., Infect. Immun. 52:262-270, 1986) to an optical density of approximately 0.040 at 600 nm in the absence (negative control) or presence of 1 μM ferric chloride (positive growth control). To some aliquots of both positive and negative control conditions, gallium nitrate was added at varying concentrations. The bacterial suspensions were placed at 37° C. for 7 h and growth was determined by measuring absorbance at 600 nm. […] With the inclusion of ferric chloride the concentration of organisms increased nearly eight fold A600=0.297).

Compound: O=[N+]([O-])[O-].O=[N+]([O-])[O-].O=[N+]([O-])[O-].[Ga+3] [gallium nitrate]
- colony-forming units from macrophage lysates, trend ([1]; between days 2 and 5 following gallium nitrate): continuous decrease in colony-forming units
- killing of M. tuberculosis ([1]; colony forming unit assay, FIG. 5): M. tuberculosis were killed
- colony-forming units relative to initial amount of bacteria in macrophages ([1]; day 5): only slightly below the initial amount of bacteria in macrophages
- monolayer of treated infected macrophages ([1]; during assay, control-infected monolayers were lysed): maintained a very good monolayer
- growth inhibition of MAI [2]: inhibits the growth of MAI
- growth inhibition of MAI ([2]; listed as Gallium nitrate): significant inhibition of MAI growth
- dose that is non-toxic in vivo ([3]; in vivo): at least 200 mg/m^2 /day
- plasma concentration that is non-toxic in vivo ([3]; in vivo): greater than 1.2 mg/L
- tolerated dose ([3]; intravenous, at least 7 days (Todd et al.)): at least 200 mg/m^2 /day
- safe dose in cancer patient therapy ([3]; literature, cancer patients): at least 200 mg/m^2 /day
- tolerability ([3]; patients with cancer-related hypercalcemia): well tolerated, producing few clinically relevant adverse effects
- growth inhibition of MAI [4]: inhibits the growth of MAI
- growth inhibition of MAI ([4]; listed as Gallium nitrate): significant inhibition of MAI growth
- concentration with marked inhibition of growth (comparison with gallium transferrin) [5]: 100 µM
- augmentation of growth inhibition by antibiotics ([6]; gallium nitrate 500 μM plus suboptimal antibiotics (1/10 the standard concentrations), human alveolar macrophages): augments the ability of suboptimal concentrations of antibiotics
- enhancement of antibiotic growth inhibition ([6]; suboptimal streptomycin, isoniazid, rifampin and ethambutol or suboptimal Isoniazid and rifampin): clear-cut enhancement in inhibition of M. tuberculosis growth
- growth inhibition in words ([7]; 1 μM gallium nitrate): Slight inhibition
- A600 (growth) ([7]; 1 μM gallium nitrate): 0.270
- decrease of growth ([7]; 10 μM gallium nitrate): more than 50%
- A600 (growth) ([7]; 10 μM gallium nitrate): 0.130
- P. aeruginosa growth inhibition ([7]; 100 μM and 10 μM gallium nitrate, ferric chloride supplemented): Significant inhibition
- growth inhibition in words ([7]; 100 μM gallium nitrate): completely inhibited
- A600 (growth) ([7]; 100 μM gallium nitrate): 0.043
